Broadly, the IC50 is the concentration at which inhibition is half-maximal. Lower therefore signals greater potency.

The structures appear in SMILES notation.

For one experiment, the system named is HUVEC. The experiment in a line: Antiproliferative activity against human HUVEC cells after 48 hrs by MTT assay. It is filed as cell-based.
Conditions: not given
As to `COc1ccc(-n2nncc2CN2C(=O)C3(C(C#N)=C(N)Oc4c3c3nc5ccccc5nc3c3ccccc43)c3ccccc32)cc1` (configuration not stated), the IC50 is greater than 50 µM.

Regarding `N#CC1=C(N)Oc2c(N)cc3nc4ccccc4nc3c2C12C(=O)N(Cc1cnnn1-c1cccc(Br)c1)c1ccccc12` (configuration not stated), the IC50 was greater than 50 µM.

Consider `COc1ccc(OC)c(-n2nncc2CN2C(=O)C3(C(C#N)=C(N)Oc4c(N)cc5nc6ccccc6nc5c43)c3ccccc32)c1` (configuration not stated), for which the IC50 is greater than 50 µM.

In the case of `N#CC1=C(N)Oc2c(c3nc4ccccc4nc3c3ccccc23)C12C(=O)N(Cc1cnnn1-c1ccc(Cl)c(Cl)c1)c1ccccc12` (configuration not stated), the concentration for half-maximal inhibition (IC50) was greater than 50 µM.

`Cc1ccc(-n2nncc2CN2C(=O)C3(C(C#N)=C(N)Oc4c(N)cc5nc6ccccc6nc5c43)c3ccccc32)cc1Cl` (configuration not stated) returned a 50% inhibitory concentration (IC50) greater than 50 µM.

`N#CC1=C(N)Oc2c(N)cc3nc4ccccc4nc3c2C12C(=O)N(Cc1cnnn1-c1ccc(Cl)cc1[N+](=O)[O-])c1ccccc12` (configuration not stated): the half-inhibitory concentration (IC50) is greater than 50 µM.

Take `COc1ccc(-n2nncc2CN2C(=O)C3(C(C#N)=C(N)Oc4c(N)cc5nc6ccccc6nc5c43)c3ccccc32)cc1` (configuration not stated): the IC50 was greater than 50 µM.

For a further experiment, the system named is A549. Kind of experiment: Antiproliferative activity against human A549 cells after 48 hrs by MTT assay. It is filed as functional, cell-based. Conditions: A549, 48 h.
As for `COc1ccc(-n2nncc2CN2C(=O)C3(C(C#N)=C(N)Oc4c3c3nc5ccccc5nc3c3ccccc43)c3ccccc32)cc1` (configuration not stated), the concentration for half-maximal inhibition (IC50) was greater than 50 µM.

The compound `N#CC1=C(N)Oc2c(N)cc3nc4ccccc4nc3c2C12C(=O)N(Cc1cnnn1-c1cccc(Br)c1)c1ccccc12` (configuration not stated) gave an IC50 of 18.9 µM.

Consider `COc1ccc(OC)c(-n2nncc2CN2C(=O)C3(C(C#N)=C(N)Oc4c(N)cc5nc6ccccc6nc5c43)c3ccccc32)c1` (configuration not stated), for which half-maximal inhibition (IC50) required 28.1 µM.

`N#CC1=C(N)Oc2c(c3nc4ccccc4nc3c3ccccc23)C12C(=O)N(Cc1cnnn1-c1ccc(Cl)c(Cl)c1)c1ccccc12` (configuration not stated) returned an IC50 greater than 50 µM.

In the case of `Cc1ccc(-n2nncc2CN2C(=O)C3(C(C#N)=C(N)Oc4c(N)cc5nc6ccccc6nc5c43)c3ccccc32)cc1Cl` (configuration not stated), the IC50 worked out at 11.8 µM.

`N#CC1=C(N)Oc2c(N)cc3nc4ccccc4nc3c2C12C(=O)N(Cc1cnnn1-c1ccc(Cl)cc1[N+](=O)[O-])c1ccccc12` (configuration not stated) yielded an IC50 greater than 50 µM.

`COc1ccc(-n2nncc2CN2C(=O)C3(C(C#N)=C(N)Oc4c(N)cc5nc6ccccc6nc5c43)c3ccccc32)cc1` (configuration not stated) showed an IC50 greater than 50 µM.

For the next experiment, the system named is MCF7. The experiment in a line: Antiproliferative activity against human MCF7 cells after 48 hrs by MTT assay. Type of experiment: functional, cell-based. Conditions: MCF7, 48 h. For orientation: Tetrazolium assays rely on reduction of a dye to a coloured formazan, in cell work by metabolically active cells.
Consider `COc1ccc(-n2nncc2CN2C(=O)C3(C(C#N)=C(N)Oc4c3c3nc5ccccc5nc3c3ccccc43)c3ccccc32)cc1` (configuration not stated), for which the half-inhibitory concentration (IC50) was greater than 50 µM.

Compound `N#CC1=C(N)Oc2c(N)cc3nc4ccccc4nc3c2C12C(=O)N(Cc1cnnn1-c1cccc(Br)c1)c1ccccc12` (configuration not stated) showed an IC50 greater than 50 µM.

`COc1ccc(OC)c(-n2nncc2CN2C(=O)C3(C(C#N)=C(N)Oc4c(N)cc5nc6ccccc6nc5c43)c3ccccc32)c1` (configuration not stated): the IC50 was 28.1 µM.

With `N#CC1=C(N)Oc2c(c3nc4ccccc4nc3c3ccccc23)C12C(=O)N(Cc1cnnn1-c1ccc(Cl)c(Cl)c1)c1ccccc12` (configuration not stated), the IC50 was greater than 50 µM.

In turn, `Cc1ccc(-n2nncc2CN2C(=O)C3(C(C#N)=C(N)Oc4c(N)cc5nc6ccccc6nc5c43)c3ccccc32)cc1Cl` (configuration not stated) returned an IC50 greater than 50 µM.

As for `N#CC1=C(N)Oc2c(N)cc3nc4ccccc4nc3c2C12C(=O)N(Cc1cnnn1-c1ccc(Cl)cc1[N+](=O)[O-])c1ccccc12` (configuration not stated), the IC50 is greater than 50 µM.

`COc1ccc(-n2nncc2CN2C(=O)C3(C(C#N)=C(N)Oc4c(N)cc5nc6ccccc6nc5c43)c3ccccc32)cc1` (configuration not stated) yielded an IC50 greater than 50 µM.

A further experiment concerns HCT-116. Kind of experiment: Antiproliferative activity against human HCT116 cells after 48 hrs by MTT assay. It is filed as functional, cell-based. The note with it: HCT-116, 48 h.
Regarding `COc1ccc(-n2nncc2CN2C(=O)C3(C(C#N)=C(N)Oc4c3c3nc5ccccc5nc3c3ccccc43)c3ccccc32)cc1` (configuration not stated), the IC50 was greater than 50 µM.

`N#CC1=C(N)Oc2c(N)cc3nc4ccccc4nc3c2C12C(=O)N(Cc1cnnn1-c1cccc(Br)c1)c1ccccc12` (configuration not stated) registered an IC50 of 26.1 µM.

Regarding `COc1ccc(OC)c(-n2nncc2CN2C(=O)C3(C(C#N)=C(N)Oc4c(N)cc5nc6ccccc6nc5c43)c3ccccc32)c1` (configuration not stated), the half-maximal inhibitory concentration (IC50) was greater than 50 µM.

Turning to `N#CC1=C(N)Oc2c(c3nc4ccccc4nc3c3ccccc23)C12C(=O)N(Cc1cnnn1-c1ccc(Cl)c(Cl)c1)c1ccccc12` (configuration not stated), the IC50 was greater than 50 µM.

As for `Cc1ccc(-n2nncc2CN2C(=O)C3(C(C#N)=C(N)Oc4c(N)cc5nc6ccccc6nc5c43)c3ccccc32)cc1Cl` (configuration not stated), the IC50 is greater than 50 µM.

In turn, `N#CC1=C(N)Oc2c(N)cc3nc4ccccc4nc3c2C12C(=O)N(Cc1cnnn1-c1ccc(Cl)cc1[N+](=O)[O-])c1ccccc12` (configuration not stated) had an IC50 of 28.7 µM.

Regarding `COc1ccc(-n2nncc2CN2C(=O)C3(C(C#N)=C(N)Oc4c(N)cc5nc6ccccc6nc5c43)c3ccccc32)cc1` (configuration not stated), the IC50 is greater than 50 µM.

For another experiment, the system named is L02. The experiment in a line: Antiproliferative activity against human L02 cells after 48 hrs by MTT assay. Conditions: L02, 48 h. Type of experiment: cell-based.
Turning to `COc1ccc(-n2nncc2CN2C(=O)C3(C(C#N)=C(N)Oc4c3c3nc5ccccc5nc3c3ccccc43)c3ccccc32)cc1` (configuration not stated), the concentration for half-maximal inhibition (IC50) was greater than 50 µM.

`N#CC1=C(N)Oc2c(N)cc3nc4ccccc4nc3c2C12C(=O)N(Cc1cnnn1-c1cccc(Br)c1)c1ccccc12` (configuration not stated) gave an IC50 greater than 50 µM.

In the case of `COc1ccc(OC)c(-n2nncc2CN2C(=O)C3(C(C#N)=C(N)Oc4c(N)cc5nc6ccccc6nc5c43)c3ccccc32)c1` (configuration not stated), the IC50 was greater than 50 µM.

As to `N#CC1=C(N)Oc2c(c3nc4ccccc4nc3c3ccccc23)C12C(=O)N(Cc1cnnn1-c1ccc(Cl)c(Cl)c1)c1ccccc12` (configuration not stated), the IC50 was greater than 50 µM.

In the case of `Cc1ccc(-n2nncc2CN2C(=O)C3(C(C#N)=C(N)Oc4c(N)cc5nc6ccccc6nc5c43)c3ccccc32)cc1Cl` (configuration not stated), the IC50 was greater than 50 µM.

Regarding `N#CC1=C(N)Oc2c(N)cc3nc4ccccc4nc3c2C12C(=O)N(Cc1cnnn1-c1ccc(Cl)cc1[N+](=O)[O-])c1ccccc12` (configuration not stated), the IC50 is greater than 50 µM.

In turn, `COc1ccc(-n2nncc2CN2C(=O)C3(C(C#N)=C(N)Oc4c(N)cc5nc6ccccc6nc5c43)c3ccccc32)cc1` (configuration not stated) registered an IC50 greater than 50 µM.

The next experiment relates to HepG2. The experiment in a line: Antiproliferative activity against human HepG2 cells after 48 hrs by MTT assay. It is filed as functional, cell-based. Conditions: HepG2, 48 h.
`COc1ccc(-n2nncc2CN2C(=O)C3(C(C#N)=C(N)Oc4c3c3nc5ccccc5nc3c3ccccc43)c3ccccc32)cc1` (configuration not stated): the IC50 is greater than 50 µM.

Take `N#CC1=C(N)Oc2c(N)cc3nc4ccccc4nc3c2C12C(=O)N(Cc1cnnn1-c1cccc(Br)c1)c1ccccc12` (configuration not stated): the IC50 is greater than 50 µM.

`COc1ccc(OC)c(-n2nncc2CN2C(=O)C3(C(C#N)=C(N)Oc4c(N)cc5nc6ccccc6nc5c43)c3ccccc32)c1` (configuration not stated) gave an IC50 of 45.1 µM.

Compound `N#CC1=C(N)Oc2c(c3nc4ccccc4nc3c3ccccc23)C12C(=O)N(Cc1cnnn1-c1ccc(Cl)c(Cl)c1)c1ccccc12` (configuration not stated) had an IC50 greater than 50 µM.

Compound `Cc1ccc(-n2nncc2CN2C(=O)C3(C(C#N)=C(N)Oc4c(N)cc5nc6ccccc6nc5c43)c3ccccc32)cc1Cl` (configuration not stated) gave a concentration for half-maximal inhibition (IC50) greater than 50 µM.

`N#CC1=C(N)Oc2c(N)cc3nc4ccccc4nc3c2C12C(=O)N(Cc1cnnn1-c1ccc(Cl)cc1[N+](=O)[O-])c1ccccc12` (configuration not stated) came in with an IC50 greater than 50 µM.

Compound `COc1ccc(-n2nncc2CN2C(=O)C3(C(C#N)=C(N)Oc4c(N)cc5nc6ccccc6nc5c43)c3ccccc32)cc1` (configuration not stated) yielded an IC50 greater than 50 µM.

These data come from ChEMBL document CHEMBL4033663, “Design, combinatorial synthesis and biological evaluations of novel 3-amino-1'-((1-aryl-1H-1,2,3-triazol-5-yl)methyl)-2'-oxospiro[benzo[a] pyrano[2,3-c]phenazine-1,3'-indoline]-2-carbonitrile antitumor hybrid molecules” (Eur J Med Chem, 2017).
